Values of other authors in patent EP4741436A1, “POLYMERIZABLE COMPOSITION FOR OPTICAL MATERIAL, POLYMERIZABLE PREPOLYMER COMPOSITION FOR OPTICAL MATERIAL, CURED ARTICLE, AND METHOD FOR PRODUCING OPTICAL MATERIAL” (Mitsui Chemicals, Inc., priority 2023, dated 2025).
Like-named read-outs stand apart in the source and are kept apart here.

Details: for pKa: organic acids and basic polymerization catalysts, values given in text

| Compound | pKa of Organic Acid (organic acid used in the composition of the column) | pKa | pKa (listed as (±)-10-camphorsulfonic acid) |
| --- | --- | --- | --- |
| CC1(C)C2CCC1(CS(=O)(=O)O)C(=O)C2 (racemic) [10-camphorsulfonic acid, (±)-10-camphorsulfonic acid] | 1.17 | 1.2 | 1.17 |
| O=S(=O)(O)c1ccccc1 [benzenesulfonic acid] |  | 0.7 |  |
| CCCCS(=O)(=O)O [butanesulfonic acid] |  | 1.9 |  |
| CCS(=O)(=O)O [ethanesulfonic acid] |  | 1.8 |  |
| CCCS(=O)(=O)O [propanesulfonic acid] |  | 1.9 |  |
| C=CS(=O)(=O)O [vinylsulfonic acid] |  | -2.7 |  |
